Experimental data reported in patent US11964041B2, “Compositions comprising levan and use thereof” (GAN SHMUEL FOODS LTD., priority 2018, dated 2024).

Assays:
Type in all cases: cell-based
[1] = system: Staphylococcus epidermidis; assay: Bacterial growth, minimal inhibition concentration (MIC) assay; conditions: Ampicillin 100 μg/ml, positive control
Experimental: The experiment was conducted in Staphylococcus epidermidis. Two Test Items were evaluated in this study; Levan and a Commercial reference (C.R.). The assay was carried out in triplicates. The in vitro activity of the Test items was evaluated by minimal inhibition concentration (MIC) assay. This was measured spectrometrically. The increase bacteria number versus time of incubation w/o or with increasing concentrations of the Test items was plotted. Streak plate isolation technique was performed to isolate a single homogenous colony, according to SOP. One colony of each bacterial strain was inoculated from agar plate into U-shape falcon tube at a final volume of 4 ml in BHI liquid broth. Cultures were incubated in a bacterial incubator-shaker at 37° C. with shaking at 250 rpm overnight. The cultures were diluted and grown to mid-log phase (O.D. Approx. 0.5; 600 nm). The exact O.D. was recorded [0.506]. Dose response analysis of six concentrations for each Test Item was performed in the bacteria as described in Table 7. The following control groups were included in this study: Naïve group (Group 1), Vehicle group (mock treatment—hexose, Group 2) and positive control groups (Ampicillin (100 μg/ml), Group 3). […] The absorbance was recorded at 600 nm. The absorbance of the blank control was subtracted from all measurements (0.107).

human skin explants [2] = assay: Epidermal viability by MTT in human skin organ culture; conditions: 10% SDS, positive control, 48 hr
Experimental: (§1) The human skin organ culture was obtained from a healthy patient undergoing plastic surgery (person). The study was initiated at the day of surgery.
(§2) Fixed size skin explant pieces (0.64 cm^2) were cut from the skin tissue, using a designated press apparatus.
(§3) The skin pieces were prepared and maintained in air liquid interphase; the explants were laid in 6-well culture plates containing skin culture medium (Dulbecco Minimal Essential Medium (DMEM) supplemented with 100 U/ml penicillin and 100 μg/ml streptomycin), dermal side down in the medium and epidermis phasing up. The pieces were left to recover at 37° C. with 5% CO2 overnight. […]
(§4) The following control groups were also included in this study: Naïve group (Group 1), Vehicle group (mock treatment—hexose, Group 2), and positive control groups for viability and proliferation (10% SDS, Group 3 and 10 ng/ml EGF, Group 4, respectively). Hyaluronic acid was evaluated in this system (0.2%, Group 5). […]
The pieces were incubated at 37° C. with 5% CO2 under humidified atmosphere for 48 hr. […] The epidermal viability was evaluated by MTT, according to standard operating procedure (SOP). […] Concomitantly, the epidermal turnover rate was determined on the second set of test groups by BrdU assay according to the kit's manufacturer instructions.

human skin explants [3] = assay: Epidermal turnover rate by BrdU assay in human skin organ culture; conditions: hyaluronic acid 0.2% with vehicle
Experimental: as §1, §2, §3, §4
The pieces were incubated at 37° C. with 5% CO2 under humidified atmosphere for 48 hr. […] The epidermal viability was evaluated by MTT, according to standard operating procedure (SOP). […] Concomitantly, the epidermal turnover rate was determined on the second set of test groups by BrdU assay according to the kit's manufacturer instructions. […]
Colorimetric evaluation of the turnover rate was recorded by Enzyme-Linked Immunosorbent Assay (ELISA) reader.

Molecule: CC1(C)S[C@@H]2[C@H](NC(=O)[C@H](N)c3ccccc3)C(=O)N2[C@H]1C(=O)O [Ampicillin]
- bacterial growth (O.D. 600 nm) [1]: effectively blocked the bacterial growth

Molecule: CCCCCCCCCCCCOS(=O)(=O)[O-].[Na+] [SDS]
- skin viability (MTT) (human skin explants [2]): reduced skin viability

Molecule: Hyaluronic acid
- effectiveness compared with the disclosed levan-based composition (human skin explants [3]): less effective
